Assay results reported in ChEMBL document CHEMBL5291721, “A preclinical secondary pharmacology resource illuminates target-adverse drug reaction associations of marketed drugs” (Nat Commun, 2023).

Legend:
[1] = molecular target: T1, Cholecystokinin receptor type A (Homo sapiens, UniProt P32238)
T1 sequence (P32238 whole entry): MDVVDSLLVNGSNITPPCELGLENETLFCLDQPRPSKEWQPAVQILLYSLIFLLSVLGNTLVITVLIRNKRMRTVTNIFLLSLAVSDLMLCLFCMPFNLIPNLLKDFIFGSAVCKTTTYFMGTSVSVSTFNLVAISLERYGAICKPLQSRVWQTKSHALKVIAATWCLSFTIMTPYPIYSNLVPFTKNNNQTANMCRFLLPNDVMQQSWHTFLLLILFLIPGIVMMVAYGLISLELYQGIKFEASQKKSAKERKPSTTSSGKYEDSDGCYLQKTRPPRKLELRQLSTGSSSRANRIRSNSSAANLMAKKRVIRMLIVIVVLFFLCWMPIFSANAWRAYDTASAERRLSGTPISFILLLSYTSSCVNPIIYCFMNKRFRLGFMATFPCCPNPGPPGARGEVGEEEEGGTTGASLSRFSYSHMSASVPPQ

[2] = molecular target: 3',5'-cyclic-AMP phosphodiesterase 4D (Homo sapiens, UniProt Q08499); format: functional
Chain of 3',5'-cyclic-AMP phosphodiesterase 4D (Q08499 whole entry): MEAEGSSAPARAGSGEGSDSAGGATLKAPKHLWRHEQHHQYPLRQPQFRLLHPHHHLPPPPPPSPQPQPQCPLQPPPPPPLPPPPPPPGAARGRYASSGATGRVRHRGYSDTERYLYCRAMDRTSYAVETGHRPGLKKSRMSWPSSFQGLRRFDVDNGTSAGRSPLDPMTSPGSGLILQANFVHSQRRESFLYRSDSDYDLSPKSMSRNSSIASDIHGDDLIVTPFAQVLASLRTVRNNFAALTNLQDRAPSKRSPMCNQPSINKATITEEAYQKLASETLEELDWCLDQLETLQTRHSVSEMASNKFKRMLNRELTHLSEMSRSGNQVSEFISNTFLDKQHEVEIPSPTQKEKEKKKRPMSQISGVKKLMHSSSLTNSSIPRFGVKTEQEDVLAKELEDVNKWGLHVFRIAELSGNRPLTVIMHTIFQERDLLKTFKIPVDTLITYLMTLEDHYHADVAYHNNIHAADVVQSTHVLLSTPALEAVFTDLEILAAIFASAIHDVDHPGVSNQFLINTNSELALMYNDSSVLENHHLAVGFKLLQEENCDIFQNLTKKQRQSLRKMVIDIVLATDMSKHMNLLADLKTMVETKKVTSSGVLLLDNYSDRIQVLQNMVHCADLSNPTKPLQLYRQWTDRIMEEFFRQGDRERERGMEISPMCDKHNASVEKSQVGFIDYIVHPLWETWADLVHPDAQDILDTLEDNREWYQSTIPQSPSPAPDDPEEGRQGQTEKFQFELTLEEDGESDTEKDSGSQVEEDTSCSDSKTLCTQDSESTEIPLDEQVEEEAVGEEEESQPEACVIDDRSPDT

Adenosine receptor A1 = molecular target: T2, Adenosine receptor A1 (Homo sapiens, UniProt P30542)
T2 sequence (P30542 whole entry): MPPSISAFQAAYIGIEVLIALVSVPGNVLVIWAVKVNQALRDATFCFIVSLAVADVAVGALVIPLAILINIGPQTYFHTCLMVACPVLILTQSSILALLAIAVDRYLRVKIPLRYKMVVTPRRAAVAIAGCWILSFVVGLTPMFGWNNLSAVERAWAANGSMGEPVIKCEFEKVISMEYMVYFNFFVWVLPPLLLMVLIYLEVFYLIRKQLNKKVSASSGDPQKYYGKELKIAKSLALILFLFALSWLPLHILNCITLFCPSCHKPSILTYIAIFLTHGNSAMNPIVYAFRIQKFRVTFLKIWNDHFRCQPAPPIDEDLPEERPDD

[3] = molecular target: T3, Alpha-2B adrenergic receptor (Homo sapiens, UniProt P18089)
T3 sequence (P18089 whole entry): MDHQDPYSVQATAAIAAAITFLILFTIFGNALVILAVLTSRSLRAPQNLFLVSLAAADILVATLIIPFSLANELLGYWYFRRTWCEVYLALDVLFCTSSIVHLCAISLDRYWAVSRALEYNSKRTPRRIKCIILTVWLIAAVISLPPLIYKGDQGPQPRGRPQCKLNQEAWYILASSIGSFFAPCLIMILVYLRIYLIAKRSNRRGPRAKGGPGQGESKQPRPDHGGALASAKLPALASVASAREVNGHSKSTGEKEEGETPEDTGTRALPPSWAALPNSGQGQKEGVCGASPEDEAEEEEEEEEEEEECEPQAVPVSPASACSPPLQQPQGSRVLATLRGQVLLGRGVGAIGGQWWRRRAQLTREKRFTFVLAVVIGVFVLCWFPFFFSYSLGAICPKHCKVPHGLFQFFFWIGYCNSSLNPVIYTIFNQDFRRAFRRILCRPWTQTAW

Thromboxane A2 receptor = molecular target: T4, Thromboxane A2 receptor (Homo sapiens, UniProt P21731)
T4 sequence (P21731 whole entry): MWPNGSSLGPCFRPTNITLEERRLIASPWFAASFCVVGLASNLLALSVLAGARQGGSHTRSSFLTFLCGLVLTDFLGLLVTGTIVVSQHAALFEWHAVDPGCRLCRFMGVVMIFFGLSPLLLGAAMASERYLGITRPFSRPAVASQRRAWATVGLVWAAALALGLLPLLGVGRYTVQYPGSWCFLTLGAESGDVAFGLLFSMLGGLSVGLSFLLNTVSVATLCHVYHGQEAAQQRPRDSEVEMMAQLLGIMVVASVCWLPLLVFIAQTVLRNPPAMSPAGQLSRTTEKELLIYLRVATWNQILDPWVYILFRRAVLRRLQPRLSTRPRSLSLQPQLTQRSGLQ

[4] = molecular target: Beta-1 adrenergic receptor (Homo sapiens, UniProt P08588); format: functional
Chain of Beta-1 adrenergic receptor (P08588 whole entry): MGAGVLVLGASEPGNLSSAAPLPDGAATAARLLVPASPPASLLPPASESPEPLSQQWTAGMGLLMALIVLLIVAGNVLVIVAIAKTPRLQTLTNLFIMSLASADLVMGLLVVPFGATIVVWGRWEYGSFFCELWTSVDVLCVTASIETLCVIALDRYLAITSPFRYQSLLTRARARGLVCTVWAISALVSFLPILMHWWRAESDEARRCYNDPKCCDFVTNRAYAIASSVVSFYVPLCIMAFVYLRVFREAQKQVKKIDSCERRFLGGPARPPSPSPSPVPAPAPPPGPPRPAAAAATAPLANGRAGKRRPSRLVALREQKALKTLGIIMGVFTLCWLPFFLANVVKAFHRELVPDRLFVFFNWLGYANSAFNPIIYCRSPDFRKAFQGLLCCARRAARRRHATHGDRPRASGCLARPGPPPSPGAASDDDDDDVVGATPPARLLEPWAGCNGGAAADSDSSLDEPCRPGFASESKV

[5] = molecular target: T5, Alpha-2A adrenergic receptor (Homo sapiens, UniProt P08913); format: functional, cell-based
T5 sequence (P08913 whole entry): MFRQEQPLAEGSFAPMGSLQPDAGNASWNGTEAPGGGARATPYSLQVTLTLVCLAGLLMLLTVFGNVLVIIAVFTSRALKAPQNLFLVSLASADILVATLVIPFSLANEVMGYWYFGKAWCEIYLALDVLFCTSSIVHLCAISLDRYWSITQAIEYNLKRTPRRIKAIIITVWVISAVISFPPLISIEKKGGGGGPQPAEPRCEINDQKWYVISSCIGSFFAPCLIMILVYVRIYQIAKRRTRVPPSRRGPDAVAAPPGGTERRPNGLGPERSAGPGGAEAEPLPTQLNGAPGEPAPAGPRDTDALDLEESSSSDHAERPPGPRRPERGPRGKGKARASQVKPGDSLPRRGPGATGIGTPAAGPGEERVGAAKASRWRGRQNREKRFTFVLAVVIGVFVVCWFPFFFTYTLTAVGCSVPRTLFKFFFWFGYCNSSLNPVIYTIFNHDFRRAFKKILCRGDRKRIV

[6] = molecular target: Glutamate receptor ionotropic, NMDA 1 (Rattus norvegicus, UniProt P35439)
[7] = molecular target: Beta-2 adrenergic receptor (Homo sapiens, UniProt P07550); format: functional, cell-based
Chain of Beta-2 adrenergic receptor (P07550 whole entry): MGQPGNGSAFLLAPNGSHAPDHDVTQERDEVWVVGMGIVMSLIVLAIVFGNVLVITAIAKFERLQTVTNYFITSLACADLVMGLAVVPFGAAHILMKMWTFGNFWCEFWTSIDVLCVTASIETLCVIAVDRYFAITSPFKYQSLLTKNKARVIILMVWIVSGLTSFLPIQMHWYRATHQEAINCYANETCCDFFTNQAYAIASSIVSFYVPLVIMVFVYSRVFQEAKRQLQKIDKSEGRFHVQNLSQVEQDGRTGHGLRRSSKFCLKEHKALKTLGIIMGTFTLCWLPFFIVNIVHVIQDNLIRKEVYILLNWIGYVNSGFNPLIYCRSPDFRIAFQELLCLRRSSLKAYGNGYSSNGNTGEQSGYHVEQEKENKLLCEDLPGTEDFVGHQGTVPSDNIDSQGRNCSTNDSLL

[8] = molecular target: Growth hormone secretagogue receptor type 1 (Homo sapiens, UniProt Q92847)
Chain of Growth hormone secretagogue receptor type 1 (Q92847 whole entry): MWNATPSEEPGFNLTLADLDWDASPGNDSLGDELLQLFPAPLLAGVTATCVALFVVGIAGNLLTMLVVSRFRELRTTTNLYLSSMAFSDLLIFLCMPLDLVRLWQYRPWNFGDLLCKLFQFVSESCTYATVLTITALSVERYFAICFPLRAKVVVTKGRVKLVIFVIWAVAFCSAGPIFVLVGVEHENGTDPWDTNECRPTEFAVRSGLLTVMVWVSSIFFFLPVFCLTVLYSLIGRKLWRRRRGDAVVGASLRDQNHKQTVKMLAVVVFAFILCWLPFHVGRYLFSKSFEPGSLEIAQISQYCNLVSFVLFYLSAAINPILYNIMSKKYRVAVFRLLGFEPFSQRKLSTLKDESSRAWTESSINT

Adenosine receptor A2a = Adenosine receptor A2a (Homo sapiens, UniProt P29274)
Chain of Adenosine receptor A2a (P29274 whole entry): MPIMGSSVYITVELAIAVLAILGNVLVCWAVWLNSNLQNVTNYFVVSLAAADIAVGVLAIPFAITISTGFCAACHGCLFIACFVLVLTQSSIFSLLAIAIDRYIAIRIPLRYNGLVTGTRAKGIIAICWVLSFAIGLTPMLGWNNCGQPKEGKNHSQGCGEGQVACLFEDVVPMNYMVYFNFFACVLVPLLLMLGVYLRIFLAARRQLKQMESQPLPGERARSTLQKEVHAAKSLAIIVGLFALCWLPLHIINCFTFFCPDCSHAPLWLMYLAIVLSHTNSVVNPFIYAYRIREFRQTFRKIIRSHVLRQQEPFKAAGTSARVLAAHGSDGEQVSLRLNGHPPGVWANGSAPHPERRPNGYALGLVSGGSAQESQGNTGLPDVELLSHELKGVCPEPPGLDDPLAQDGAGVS

Mu-type opioid receptor = Mu-type opioid receptor (Homo sapiens, UniProt P35372)
Chain of Mu-type opioid receptor (P35372 whole entry): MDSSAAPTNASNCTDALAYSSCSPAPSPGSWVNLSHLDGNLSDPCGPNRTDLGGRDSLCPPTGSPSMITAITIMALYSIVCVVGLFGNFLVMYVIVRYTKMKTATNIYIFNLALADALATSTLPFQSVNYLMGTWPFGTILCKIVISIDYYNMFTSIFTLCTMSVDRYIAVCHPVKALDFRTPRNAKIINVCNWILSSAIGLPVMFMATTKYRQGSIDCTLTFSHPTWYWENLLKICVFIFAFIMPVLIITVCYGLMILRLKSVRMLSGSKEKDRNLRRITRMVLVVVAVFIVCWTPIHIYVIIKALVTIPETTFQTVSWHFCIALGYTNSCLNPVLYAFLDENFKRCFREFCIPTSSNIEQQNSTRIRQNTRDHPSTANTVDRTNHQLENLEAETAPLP
Further: assay procedure not described here.

Row | Structure (SMILES) | AC50 [1] [µM] | AC50 [2] [µM] | AC50 (Adenosine receptor A1) [µM] | AC50 [3] [µM] | AC50 (Thromboxane A2 receptor) [µM] | AC50 [4] [µM] | AC50 [5] [µM] | AC50 [6] [µM] | AC50 [7] [µM] | AC50 [8] [µM] | AC50 (Adenosine receptor A2a) [µM] | AC50 (Mu-type opioid receptor) [µM]
1 | COCCOC(=O)C1=C(C)NC(C)=C(C(=O)OC/C=C/c2ccccc2)C1c1cccc([N+](=O)[O-])c1 (centres undefined) [CILNIDIPINE] | > 30 | 8.2 | > 30 | > 30 | 21 | > 30 | > 30 | > 30 | > 30 | > 30 | > 30 | –
2 | COc1cccc2c1C(=O)c1c(O)c3c(c(O)c1C2=O)C[C@@](O)(C(C)=O)C[C@@H]3O[C@H]1C[C@H](N)[C@H](O)[C@H](C)O1 [DAUNORUBICIN] | 24 | 22 | > 30 | – | 25 | 28 | – | > 30 | > 30 | 5.17 | 30 | 24
3 | C#C[C@]1(O)CC[C@H]2[C@@H]3CCC4=CC(=O)CCC4=C3C=C[C@@]21CC [GESTRINONE] | > 30 | 4.1 | > 30 | > 30 | > 30 | > 30 | > 30 | > 30 | > 30 | > 30 | > 30 | –
4 | CCCCCCOC(=O)CCC(=O)CN [HEXAMINOLEVULINATE] | > 30 | > 30 | > 30 | > 30 | > 30 | > 30 | > 30 | > 30 | > 30 | > 30 | > 30 | –
5 | CC#CCn1c(N2CCC[C@@H](N)C2)nc2c1c(=O)n(Cc1nc(C)c3ccccc3n1)c(=O)n2C [LINAGLIPTIN] | > 30 | > 10 | > 30 | > 10 | > 30 | > 10 | > 10 | > 10 | – | 5.2 | > 30 | > 30
6 | CC(CCc1ccccc1)NC(C)C(O)c1ccc(O)cc1 (centres undefined) [NYLIDRIN] | > 30 | > 30 | > 30 | 0.73 | > 30 | 3.95 | > 10 | – | 0.082 | > 30 | > 30 | 9.9
7 | O=C1Nc2ccc(Cl)cc2C(c2ccccc2)=NC1O (centres undefined) [OXAZEPAM] | > 30 | > 10 | > 30 | > 10 | > 30 | > 10 | > 10 | > 10 | > 30 | > 30 | > 30 | > 10
8 | CCCOC(C(=O)OC1CCN(C)CC1)(c1ccccc1)c1ccccc1 [PROPIVERINE] | > 30 | > 30 | > 30 | > 30 | > 30 | > 30 | > 30 | > 30 | – | > 30 | > 30 | 0.75
9 | Cc1ccc2c(-c3ccccc3)nc(=O)n(C(C)C)c2c1 [PROQUAZONE] | > 30 | 0.81 | > 30 | > 30 | 11 | > 30 | > 30 | > 30 | > 30 | > 30 | > 30 | –
10 | CN1CCN(c2c(F)cc3c(=O)c(C(=O)O)cn4c3c2SCC4)CC1 [RUFLOXACIN] | > 30 | > 30 | > 30 | 9.8 | > 30 | > 30 | > 30 | > 30 | > 30 | > 30 | > 30 | –
11 | CC(C)CC(N(C)C)C1(c2ccc(Cl)cc2)CCC1 (centres undefined) [SIBUTRAMINE] | > 30 | > 30 | > 30 | – | > 30 | > 10 | > 30 | > 10 | – | > 30 | > 30 | > 30
12 | COc1c(O[C@@H]2O[C@H](CO)[C@@H](O)[C@H](O)[C@H]2O)cc2c(c1OC)-c1ccc(SC)c(=O)cc1[C@@H](NC(C)=O)CC2 [THIOCOLCHICOSIDE] | > 30 | > 30 | > 30 | > 30 | > 30 | > 30 | > 30 | > 30 | > 30 | > 30 | > 30 | –
13 | CN1c2ccccc2C(NCCCCCCC(=O)O)c2ccc(Cl)cc2S1(=O)=O (centres undefined) [TIANEPTINE] | > 30 | > 30 | > 30 | > 30 | > 30 | > 30 | > 30 | > 30 | > 30 | > 30 | > 30 | > 30
14 | COc1ccc(C(CN(C)C)C2(O)CCCCC2)cc1 (centres undefined) [VENLAFAXINE] | > 30 | > 10 | > 30 | – | – | > 10 | > 10 | > 10 | > 30 | > 30 | > 30 | > 30
15 | N#C[C@@H]1CCCN1C(=O)CNC12CC3CC(CC(O)(C3)C1)C2 [VILDAGLIPTIN] | > 30 | > 30 | > 30 | > 30 | > 30 | > 10 | > 30 | > 30 | – | > 30 | > 30 | > 10
